Measured values taken from article PMC8895762 (BMC Complementary Medicine and Therapies, 2022).
Where two headings read alike, the source gives them in different places.

Key:
[1] = test system: inflammatory cytokines in cells; design: method as in PMID 20221843, PMID 12105943, PMID 18448292, PMID 25821492; settings: cited from earlier work
[2] = test system: TNF-α in LPS-stimulated RAW 264.7 macrophages; assay: TNF-α secretion by ELISA; type: cell-based, Murine; settings: 20 μM, LPS 1 μg/mL, 24 h, compared to the LPS group, p < 0.01
Description: (§1) The logarithmic growth phase of RAW 264.7 macrophages was inoculated in 96-well plates at a density of 5 × 10^3 cells/well. After 24 h of incubation, these cells were pretreated with respective concentrations of 20 μM of each compound (1, 4–6, 15 and 17) for 1 h, followed by the addition of LPS (1 μg/mL) for 24 h. Finally, 50 μL of each supernatant solution was taken to measure the concentrations of TNF-α, PGE2, IL-1β and IL-6, using the corresponding commercially available murine ELISA kits in accordance with the manufacturer’s instructions.

[3] = test system: NO production in LPS-stimulated RAW 264.7 macrophages; assay: NO production by the Griess method; type: cell-based, Murine; settings: LPS 1 μg/mL; for IC50: RAW 264.7 macrophages, mean ± SD, n = 3; for inhibition at 40 µM: RAW264.7, read-out: NO inhibition rate; for inhibition at 40 µM / NO inhibition rate: 40 μM
Description: (§2) Murine RAW 264.7 macrophages were purchased from the American Tissue Culture Collection (Manassas, USA). These cells were incubated in DMEM supplemented with 10% FBS, 100 U/mL penicillin and 100 U/mL streptomycin in humidified 5% carbon dioxide (CO2) at 37 °C [16, 17].
The effects of 19 constituents on NO production in LPS-induced RAW 264.7 macrophages were determined using the Griess method. Prior to treatment, RAW 264.7 macrophages (5 × 10^3 cells/well) were seeded into 96-well plates and incubated for 24 h. […] After 1 h, cells were incubated with or without LPS at a concentration of 1 μg/mL at 37 °C for 24 h. After incubation, 50 μL of each supernatant solution was collected and mixed with equal volumes of Griess Reagent I and Griess Reagent II, respectively. The absorbance (A) was measured at 540 nm after 10 min of incubation at room temperature. The standard concentration of sodium nitrite was used to calculate the nitrite concentration. Moreover, the NO inhibition rate (%) = (ALPS − ALPS + sample)/(ALPS − Acontrol) × 100, where ALPS, ALPS + sample, and Acontrol are the absorbance of LPS model group, LPS + sample group, and DMEM group, respectively.

[4] = test system: PGE2 in LPS-stimulated RAW 264.7 macrophages; assay: PGE2 secretion by ELISA; type: cell-based, Murine; settings: 20 μM, LPS 1 μg/mL, 24 h, compared to the LPS group, p < 0.01
Description: as §1

[5] = test system: IL-6 in LPS-stimulated RAW 264.7 macrophages; assay: IL-6 secretion by ELISA; type: cell-based, Murine; settings: 20 μM, LPS 1 μg/mL, 24 h, compared to the LPS group, p < 0.01
Description: as §1

[6] = test system: IL-1β in LPS-stimulated RAW 264.7 macrophages; assay: IL-1β secretion by ELISA; type: cell-based, Murine; settings: 20 μM, LPS 1 μg/mL, 24 h, compared to the LPS group, p < 0.01
Description: as §1

[7] = CCK-8 cell viability assay; type: cell-based, Murine; settings: mouse
Description: as §2
(§3) The effects of 19 constituents on the viability of RAW 264.7 macrophages were assessed by CCK-8 assay. Prior to treatment, RAW 264.7 macrophages (5 × 10^3 cells/well) were seeded into 96-well plates and incubated for 24 h. All cultured cells were treated with or without 19 compounds at a concentration of 40 μM at 37 °C for 24 h. After incubation, 10 μL of CCK-8 solution was added to each well and incubated at 37 °C. After 2 h, the absorbance of each well was measured at 450 nm in a microplate reader. Cell viability was calculated using the following formular:
(§4) Cell viability (%) = Asample/Acontrol × 100, where Asample and Acontrol are the absorbance of cells treated with the compound and untreated cells, respectively. Moreover, the latter is expressed as 100% cell viability.

[8] = test system: phosphorylated NF-κB p65 in LPS-stimulated RAW 264.7 macrophages; assay: NF-κB activation by Western blotting; type: cell-based, Murine; settings: 20 μM, LPS 1 μg/mL, 24 h, compared to the LPS group, p < 0.01
Description: RAW 264.7 macrophages were seeded and pretreated with respective concentrations of 20 μM of each compound (1, 4–6, 15 and 17) for 1 h, followed by the addition of LPS (1 μg/mL) for 24 h. Subsequently, the total protein was extracted by resuspending the cells in RIPA lysis buffer. In addition, protein concentrations were measured by a Bicinchoninic acid (BCA) assay kit. Proteins were separated using SDS-PAGE gels and then electroplated onto a PVDF membrane, which was blocked with 5% skim milk for 1 h at room temperature in Tris-buffered saline-Tween (TBST). Membranes were washed three times with TBST and then incubated overnight at 4 °C in diluted (1:1000) primary antibody solution (anti-NF-κB p65 or anti-phosphorylated-NF-κB p65). After washing three times with TBST, the membranes were incubated with a 1:5000 dilution of HRP-conjugated secondary antibody for 1 h at room temperature. The immunoreactive bands were determined by densitometry and quantified using a Bio-Rad auto-developer (Bio-Rad, California, USA). All results are expressed as relative ratios to the reference protein GAPDH [16, 17].

RAW 264.7 macrophages = assay: CCK-8 cell viability assay; type: cell-based, Murine; settings: 40 μM, 24 h, RAW 264.7 macrophages, mean ± SD, n = 3
Description: as §2, §3, §4

BV2 microglia = test system: BV2 microglia; design: method as in PMID 22552813; settings: 40, 60 and 80 μM; cited from earlier work
[9] = 40 μM, 24 h, RAW 264.7 macrophages, mean ± SD, n = 3, read-out: Cell viability (%)

Compound	IC50 ([3]; 24 h)	IC50 ([3]; Mus musculus, RAW264.7, 24 h)	inhibition at 40 µM ([3]; Mus musculus, 24 h)	viability at 24 h, 40 µM [7]	Cell viability (%) (RAW 264.7 macrophages)	NO inhibition rate ([3]; 24 h)	further results
O=c1c(O)c(-c2ccc(O)cc2)oc2cc(O)cc(O)c12 [Compound 1, kaempferol]	18.4 ± 2.67 µM	≤ 20 µM	> 50%	92.4 ± 3.96%	–	–	Anti-inflammatory effects by suppressing the secretion of inflammatory cytokines [1]: anti-inflammatory effects; Level of TNF-α [2]: significantly reduced; Level of PGE2 [4]: significantly reduced; Level of IL-6 [5]: significantly reduced; Level of IL-1β [6]: significantly reduced; Phosphorylation of NF-κB p65 levels [8]: significantly lower
O=c1c(O[C@@H]2O[C@H](CO)[C@@H](O)[C@H](O)[C@H]2O)c(-c2ccc(O)cc2)oc2cc(O)cc(O)c12 [Compound 2, astragalin]	–	> 40 µM	≤ 50%	–	–	–	Anti-inflammatory effects by suppressing the secretion of inflammatory cytokines [1]: anti-inflammatory effects; viability at 24 h, 40 µM [7, 9]: 95 ± 1.86%
O=c1c(O)c(-c2ccc(O)cc2)oc2cc(O[C@@H]3O[C@H](CO)[C@@H](O)[C@H](O)[C@H]3O)cc(O)c12 [Compound 3, kaempferol-7-O-β-D-glucopyranoside]	–	> 40 µM	≤ 50%	91.1 ± 5.28%	–	–	–
O=c1c(O[C@@H]2O[C@H](CO)[C@@H](O)[C@H](O)[C@H]2O)c(-c2ccc(O)cc2)oc2cc(O[C@@H]3O[C@H](CO)[C@@H](O)[C@H](O)[C@H]3O)cc(O)c12 [Compound 4, kaempferol-3,7-di-O-β-D-glucopyranoside]	–	12.2 ± 1.18 µM	> 50%	93.4 ± 6.34%	–	–	–
O=c1c(O[C@@H]2O[C@H](CO)[C@@H](O)[C@H](O)[C@H]2O[C@@H]2O[C@H](CO)[C@@H](O)[C@H](O)[C@H]2O)c(-c2ccc(O)cc2)oc2cc(O)cc(O)c12 [Compound 5, kaempferol-3-O-sophoroside]	13.1 ± 1.61 µM	–	–	–	93.48 ± 5.33%	–	–
COc1cc(O)c2c(=O)c(O[C@@H]3O[C@H](CO)[C@@H](O)[C@H](O)[C@H]3O[C@@H]3O[C@H](CO)[C@@H](O)[C@H](O)[C@H]3O)c(-c3ccc(O)cc3)oc2c1 [Compound 6, plantanone A]	12.6 ± 0.76 µM	–	–	–	96.89 ± 1.04%	–	–
O=c1c(O[C@@H]2O[C@H](CO)[C@@H](O)[C@H](O)[C@H]2O[C@@H]2O[C@H](CO)[C@@H](O)[C@H](O)[C@H]2O)c(-c2ccc(O)cc2)oc2cc(O[C@@H]3O[C@H](CO)[C@@H](O)[C@H](O)[C@H]3O)cc(O)c12 [Compound 7, kaempferol-3-O-β-D-[β-D-glucopyranosyl-(1 → 2)-glucopyranoside]-7-O-β-D-glucopyranoside]	26.5 ± 1.53 µM	–	–	–	94.03 ± 4.52%	–	–
C[C@@H]1O[C@@H](OC[C@H]2O[C@@H](Oc3c(-c4ccc(O)cc4)oc4cc(O[C@@H]5O[C@H](CO)[C@@H](O)[C@H](O)[C@H]5O)cc(O)c4c3=O)[C@H](O)[C@@H](O)[C@@H]2O)[C@H](O)[C@H](O)[C@H]1O [Compound 8, kaempferol-3-O-rutinoside-7-O-glucopyranoside]	> 40 µM	–	–	–	95.48 ± 3.54%	–	–
C[C@@H]1O[C@@H](OC[C@H]2O[C@@H](O[C@H]3[C@H](Oc4c(-c5ccc(O)cc5)oc5cc(O)cc(O)c5c4=O)O[C@H](CO)[C@@H](O)[C@@H]3O)[C@H](O)[C@@H](O)[C@@H]2O)[C@H](O)[C@H](O)[C@H]1O [Compound 9, kaempferol-3-O-α-L-rhamnopyranosyl-(1 → 6)-β-D-glucopyranosyl-(1 → 2)-β-D-glucopyranoside]	–	> 40 µM	≤ 50%	90.7 ± 3.71%	–	–	–
C[C@@H]1O[C@@H](OC[C@H]2O[C@@H](Oc3c(-c4ccc(O)cc4)oc4cc(O)cc(O)c4c3=O)[C@H](O[C@@H]3O[C@H](CO)[C@@H](O)[C@H](O)[C@H]3O)[C@@H](O)[C@@H]2O)[C@H](O)[C@H](O)[C@H]1O [Compound 10, kaempferol-3-O-β-D-glucopyranosyl-(1 → 2)-[α-L-rhamnopyranosyl-(1 → 6)]-β-D-glucopyranoside]	–	> 40 µM	≤ 50%	93.8 ± 5.06%	–	–	–
O=C1C[C@@H](c2ccc(O)cc2)Oc2cc(O)cc(O)c21 [Compound 14, naringenin]	–	38.5 ± 2.78 µM	> 50%	–	–	–	Anti-inflammatory effect via inhibition of NF-κB and MAPKs pathways (BV2 microglia): possessed anti-inflammatory effect; viability at 24 h, 40 µM [7, 9]: 93 ± 6.19%
O=C1c2c(O)cc(O)cc2O[C@H](c2ccc(O)cc2)[C@H]1O [Compound 15, dihydrokaempferol]	18.3 ± 1.71 µM	≤ 20 µM	> 50%	91.3 ± 5.38%	–	–	Anti-inflammatory effects by suppressing the secretion of inflammatory cytokines [1]: anti-inflammatory effects; Level of TNF-α [2]: significantly reduced; Level of PGE2 [4]: significantly reduced; Level of IL-6 [5]: significantly reduced; Level of IL-1β [6]: significantly reduced; Phosphorylation of NF-κB p65 levels [8]: significantly lower
OC[C@H]1O[C@@H](OCCc2ccccc2)[C@H](O)[C@@H](O)[C@@H]1O [Compound 17, phenethyl-O-β-D-glucopyranoside]	19.9 ± 2.01 µM	–	–	–	92.21 ± 3.48%	greater than 50%	Level of TNF-α [2]: significantly reduced; Level of PGE2 [4]: significantly reduced; Level of IL-6 [5]: significantly reduced; Level of IL-1β [6]: significantly reduced; Phosphorylation of NF-κB p65 levels [8]: significantly lower
OC[C@H]1O[C@@H](OC[C@H]2O[C@@H](OCCc3ccccc3)[C@H](O)[C@@H](O)[C@@H]2O)[C@H](O)[C@@H](O)[C@@H]1O [Compound 18, phenethanol-β-gentiobioside]	> 40 µM	–	–	–	92.51 ± 5.62%	≤ 50%	–
C[C@@H]1O[C@@H](OC[C@H]2O[C@@H](OCCc3ccccc3)[C@H](O)[C@@H](O)[C@@H]2O)[C@H](O)[C@H](O)[C@H]1O [Compound 19, phenethyl-O-rutinoside]	> 40 µM	–	–	–	92.30 ± 9.38%	≤ 50%	–
hostaflavanone A [Compound 16]	> 40 µM	–	–	–	92.56 ± 1.97%	≤ 50%	–
kaempferol-3-O-rutinoside [Compound 11]	31.2 ± 1.09 µM	–	–	–	–	greater than 50%	Anti-inflammatory effects by suppressing the secretion of inflammatory cytokines [1]: anti-inflammatory effects
plantanone B [Compound 12]	> 40 µM	–	–	–	91.93 ± 8.04%	≤ 50%	–
plantanone D [Compound 13]	36.1 ± 3.77 µM	–	–	–	91.84 ± 1.11%	–	–
